Reference: ChEMBL document CHEMBL1201862, “PubChem BioAssay data set” (2004)
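Five concentrations, 48 hours, 96-well plates. The concentration for 50% growth inhibition is given as GI50.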 Calls of active or inactive are those of the source. Rule as the data show it: active = GI50 up to about 1.1 µM and inactive = higher.

Assays:
Assay in all cases: NCI tumour cell line growth inhibition, 48 h
UACC-62 = system: UACC-62
HT-29 = system: HT-29
UO-31 = system: UO-31
SN12C = system: SN12C
NCI-H522 = system: NCI-H522
SW-620 = system: SW-620
K562 = system: K562
RPMI-8226 = system: RPMI-8226
CCRF-CEM = system: CCRF-CEM
SK-MEL-2 = system: SK-MEL-2
U-251 = system: U-251
COLO 205 = system: COLO 205
NCI/ADR-RES = system: NCI/ADR-RES
KM12 = system: KM12
Hs-578T = system: Hs-578T
OVCAR-3 = system: OVCAR-3
PC-3 = system: PC-3
SK-OV-3 = system: SK-OV-3
IGROV-1 = system: IGROV-1

SMILES | GI50 (UACC-62) | GI50 (HT-29) | GI50 (UO-31) | GI50 (SN12C) | GI50 (NCI-H522) | GI50 (SW-620) | GI50 (K562) | GI50 (RPMI-8226) | GI50 (CCRF-CEM) | GI50 (SK-MEL-2) | GI50 (U-251) | GI50 (COLO 205) | GI50 (NCI/ADR-RES) | GI50 (KM12) | GI50 (Hs-578T) | GI50 (OVCAR-3) | GI50 (PC-3) | GI50 (SK-OV-3) | GI50 (IGROV-1)
Nc1ncnc2c1N=C(c1ccccc1)CC(c1ccccc1)N2 (stereo not given) | > 100 µM (inactive) | > 100 µM (inactive) | > 100 µM (inactive) | > 100 µM (inactive) | > 100 µM (inactive) | > 100 µM (inactive) | > 100 µM (inactive) | > 100 µM (inactive) | > 100 µM (inactive) | > 100 µM (inactive) | > 100 µM (inactive) | > 100 µM (inactive) | 59.2 µM (inactive) | > 100 µM (inactive) | 39.4 µM (inactive) | > 100 µM (inactive) | > 100 µM (inactive) | > 100 µM (inactive) | 
CN(c1ccc(Cl)cc1)S(=O)(=O)c1cccc([N+](=O)[O-])c1 | 39.4 µM (inactive) | 22.5 µM (inactive) | 39.9 µM (inactive) | > 100 µM (inactive) | 65.5 µM (inactive) | 70.5 µM (inactive) | 26.9 µM (inactive) | 39.1 µM (inactive) | 27.5 µM (inactive) | 44.2 µM (inactive) | 64.4 µM (inactive) | 65 µM (inactive) | 36.7 µM (inactive) | 52.6 µM (inactive) | > 100 µM (inactive) | 55.3 µM (inactive) | 14.3 µM (inactive) | > 100 µM (inactive) | > 100 µM (inactive)
O=C(/C=C1\Sc2ccccc2N=C1CC(=O)c1ccccc1)c1ccccc1 |  | 8.49 µM (inactive) | 8.49 µM (inactive) | 3.88 µM (inactive) | 15.8 µM (inactive) | 3.97 µM (inactive) | 3.79 µM (inactive) | 4.65 µM (inactive) | 2.36 µM (inactive) | 17.3 µM (inactive) | 2.01 µM (inactive) | 10.3 µM (inactive) | 4.02 µM (inactive) | 4.76 µM (inactive) | 44.7 µM (inactive) | 10.7 µM (inactive) | 8.22 µM (inactive) | 9.82 µM (inactive) | 3.61 µM (inactive)
Cc1c2ncccc2cc2oc3ccccc3c(=O)c12 | 50 µM (inactive) | 35.6 µM (inactive) | 7.06 µM (inactive) | 24 µM (inactive) | 31.5 µM (inactive) | 33.5 µM (inactive) | 24.9 µM (inactive) | > 100 µM (inactive) | 16 µM (inactive) | > 100 µM (inactive) |  | 31.2 µM (inactive) | 21.4 µM (inactive) | 55.6 µM (inactive) | > 100 µM (inactive) | 33.9 µM (inactive) | 75.7 µM (inactive) | > 100 µM (inactive) | 4.63 µM (inactive)
O=C(N/N=C/c1ccc2c(c1)OCO2)Nc1ccccc1Cl | 0.762 µM (active) | 0.8 µM (active) | 4.25 µM (inactive) | 0.847 µM (active) | 0.233 µM (active) | 0.708 µM (active) | 0.327 µM (active) | 1.48 µM (inactive) | 1.13 µM (inactive) | 0.556 µM (active) | 2.68 µM (inactive) | 0.957 µM (active) | 0.335 µM (active) | 0.598 µM (active) | 1.66 µM (inactive) | 0.391 µM (active) | 2.21 µM (inactive) | 2.77 µM (inactive) | 0.622 µM (active)
COC(=O)CNC(=O)CCC(C)[C@H]1CCC2C3C(C[C@H](OC(C)=O)[C@@]21C)[C@@]1(C)CCC2(C[C@H]1C[C@H]3OC(C)=O)OOC1(CCCCC1)OO2 (stereo not given in full) | 9.12 µM (inactive) | 2.69 µM (inactive) | 1.84 µM (inactive) | 1.59 µM (inactive) | 1.48 µM (inactive) | 2.24 µM (inactive) | 3.14 µM (inactive) | 1.75 µM (inactive) | 2.1 µM (inactive) | 2.24 µM (inactive) | 1.76 µM (inactive) | 1.91 µM (inactive) | 2.17 µM (inactive) | 2.01 µM (inactive) | 2.72 µM (inactive) | 2.04 µM (inactive) | 2.49 µM (inactive) | 12.4 µM (inactive) | 1.4 µM (inactive)
COc1cccc(-c2cc(=O)c3ccccc3o2)c1N | 5.27 µM (inactive) | 12.8 µM (inactive) | 36.3 µM (inactive) | > 100 µM (inactive) | 27.9 µM (inactive) | 15.5 µM (inactive) | > 75.3 µM (inactive) | > 76.6 µM (inactive) | > 100 µM (inactive) | 27.4 µM (inactive) | > 100 µM (inactive) | 9.93 µM (inactive) | 33 µM (inactive) | > 100 µM (inactive) | 71.9 µM (inactive) | > 100 µM (inactive) | > 23.6 µM (inactive) | 15 µM (inactive) | 87.5 µM (inactive)
